{
  "source": "ChEMBL document CHEMBL5385885",
  "about": "“4-(5-Amino-pyrazol-1-yl)benzenesulfonamide derivatives as novel multi-target anti-inflammatory agents endowed with inhibitory activity against COX-2, 5-LOX and carbonic anhydrase: Design, synthesis, and biological assessments” (Eur J Med Chem, 2023)",
  "key": {"[1]": {"molecular_target": "Prostaglandin G/H synthase 1 (Homo sapiens, UniProt P23219)", "sequence (P23219 whole entry)": "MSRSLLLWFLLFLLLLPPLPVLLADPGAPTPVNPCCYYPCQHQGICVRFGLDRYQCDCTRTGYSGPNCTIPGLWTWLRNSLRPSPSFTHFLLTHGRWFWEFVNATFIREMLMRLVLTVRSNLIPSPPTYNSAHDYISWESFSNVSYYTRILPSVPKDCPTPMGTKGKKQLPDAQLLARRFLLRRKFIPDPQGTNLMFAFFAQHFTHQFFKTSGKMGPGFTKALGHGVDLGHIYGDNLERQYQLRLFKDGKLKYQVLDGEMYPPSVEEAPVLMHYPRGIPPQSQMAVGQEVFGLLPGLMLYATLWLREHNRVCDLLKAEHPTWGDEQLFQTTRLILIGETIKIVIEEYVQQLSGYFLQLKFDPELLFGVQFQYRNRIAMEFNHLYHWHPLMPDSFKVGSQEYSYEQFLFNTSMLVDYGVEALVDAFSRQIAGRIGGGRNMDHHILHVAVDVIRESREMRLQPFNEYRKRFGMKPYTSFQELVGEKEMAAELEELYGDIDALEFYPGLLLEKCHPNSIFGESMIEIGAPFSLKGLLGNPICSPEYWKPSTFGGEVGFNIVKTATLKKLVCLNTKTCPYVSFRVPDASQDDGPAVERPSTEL"}, "Rattus norvegicus [2]": {"tested_on": "Rattus norvegicus", "test": "Anti-inflammatory activity in carrageen-induced paw edema rat model assessed as inhibition of edema measured after 3 hrs relative to control", "format": "functional"}, "[3]": {"test": "Ulcerogenic activity in Albino mouse assessed as histopathological change in stomach by H and E staining based analysis", "format": "toxicity", "details": "in vivo"}, "Mus musculus [4]": {"organism": "Mus musculus", "test": "Analgesic activity in mouse assessed protection against acetic acid-induced writhing measured for 20 mins relative to control", "format": "functional"}, "Rattus norvegicus [5]": {"tested_on": "Rattus norvegicus", "test": "Anti-inflammatory activity in carrageen-induced paw edema rat model assessed as change in paw height measured immediately (reference value: 0.56 +/- 0.05 %)", "format": "functional"}, "Rattus norvegicus [6]": {"tested_on": "Rattus norvegicus", "test": "Anti-inflammatory activity in carrageen-induced paw edema rat model assessed as change in paw height measured after 1 hr (reference value: 0.68 +/- 0.04 %)", "format": "functional"}, "Rattus norvegicus [7]": {"tested_on": "Rattus norvegicus", "test": "Anti-inflammatory activity in carrageen-induced paw edema rat model assessed as change in paw height measured after 3 hrs (reference value: 0.78 +/- 0.08 %)", "format": "functional"}, "Rattus norvegicus [8]": {"tested_on": "Rattus norvegicus", "test": "Anti-inflammatory activity in carrageen-induced paw edema rat model assessed as change in paw height measured after 2 hrs (reference value: 0.64 +/- 0.05 %)", "format": "functional"}, "Mus musculus [9]": {"organism": "Mus musculus", "test": "Analgesic activity in mouse assessed reduction in number of acetic acid-induced writhing measured for 20 mins (reference value: 40 +/- 2.9)", "format": "functional"}, "[10]": {"test": "Ulcerogenic activity in Albino mouse assessed as inflammation in stomach by H and E staining based analysis", "format": "toxicity", "details": "in vivo"}, "Carbonic anhydrase 12": {"molecular_target": "Carbonic anhydrase 12 (Homo sapiens, UniProt O43570)", "sequence (O43570 whole entry)": "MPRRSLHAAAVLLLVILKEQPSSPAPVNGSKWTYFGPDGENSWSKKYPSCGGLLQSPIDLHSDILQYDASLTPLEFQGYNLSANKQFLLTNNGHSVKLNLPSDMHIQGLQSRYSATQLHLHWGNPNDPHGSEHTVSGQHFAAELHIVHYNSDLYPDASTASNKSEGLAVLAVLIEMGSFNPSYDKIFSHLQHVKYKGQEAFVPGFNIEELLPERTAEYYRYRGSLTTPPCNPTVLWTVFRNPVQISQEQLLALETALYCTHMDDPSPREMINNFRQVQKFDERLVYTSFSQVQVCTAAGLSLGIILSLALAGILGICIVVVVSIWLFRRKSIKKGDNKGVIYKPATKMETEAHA", "test": "Binding affinity to human CA12 assessed as inhibition constant by stopped flow kinetic assay"}, "Carbonic anhydrase 2": {"molecular_target": "Carbonic anhydrase 2 (Homo sapiens, UniProt P00918)", "test": "Binding affinity to human CA2 assessed as inhibition constant by stopped flow kinetic assay"}, "Carbonic anhydrase 1": {"molecular_target": "Carbonic anhydrase 1 (Homo sapiens, UniProt P00915)", "sequence (P00915 whole entry)": "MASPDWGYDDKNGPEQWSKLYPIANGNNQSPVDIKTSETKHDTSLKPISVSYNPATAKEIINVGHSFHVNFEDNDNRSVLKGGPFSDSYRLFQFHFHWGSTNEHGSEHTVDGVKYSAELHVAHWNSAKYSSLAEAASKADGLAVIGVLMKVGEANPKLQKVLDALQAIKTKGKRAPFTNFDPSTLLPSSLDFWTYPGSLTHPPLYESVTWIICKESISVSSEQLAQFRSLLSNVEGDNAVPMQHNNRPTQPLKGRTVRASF", "test": "Binding affinity to human CA1 assessed as inhibition constant by stopped flow kinetic assay"}, "Carbonic anhydrase 9": {"molecular_target": "Carbonic anhydrase 9 (Homo sapiens, UniProt Q16790)", "test": "Binding affinity to human CA9 assessed as inhibition constant by stopped flow kinetic assay"}},
  "data": [
    {"smiles": "COc1ccc(/C=N/NC(=O)c2cnn(-c3ccc(S(N)(=O)=O)cc3)c2N)cc1", "values": [
      {"measurement": "IC50", "setting": "[1]", "result": 6, "unit": "µM"}
    ]},
    {"smiles": "Cc1ccc(-c2cc(C(F)(F)F)nn2-c2ccc(S(N)(=O)=O)cc2)cc1", "note": "[CELECOXIB]", "values": [
      {"measurement": "inhibition (INH)", "setting": "Rattus norvegicus [2]", "result": 38.5, "unit": "%"},
      {"measurement": "Activity", "setting": "[3]", "result": "Non-Toxic"},
      {"measurement": "Activity", "setting": "Mus musculus [4]", "result": 60, "unit": "%"},
      {"measurement": "Activity", "setting": "Rattus norvegicus [5]", "result": 0.5, "unit": "%"},
      {"measurement": "Activity", "setting": "Rattus norvegicus [6]", "result": 0.44, "unit": "%"},
      {"measurement": "Activity", "setting": "Rattus norvegicus [7]", "result": 0.48, "unit": "%"},
      {"measurement": "Activity", "setting": "Rattus norvegicus [8]", "result": 0.52, "unit": "%"},
      {"measurement": "Activity", "setting": "Mus musculus [9]", "result": 16}
    ]},
    {"smiles": "Nc1c(C(=O)N/N=C/c2cccc([N+](=O)[O-])c2)cnn1-c1ccc(S(N)(=O)=O)cc1", "values": [
      {"measurement": "IC50", "setting": "[1]", "result": 5, "unit": "µM"}
    ]},
    {"smiles": "Nc1c(C(=O)N/N=C/c2ccc([N+](=O)[O-])cc2)cnn1-c1ccc(S(N)(=O)=O)cc1", "values": [
      {"measurement": "IC50", "setting": "[1]", "result": 5, "unit": "µM"}
    ]},
    {"smiles": "CN(C)c1ccc(/C=N/NC(=O)c2cnn(-c3ccc(S(N)(=O)=O)cc3)c2N)cc1", "values": [
      {"measurement": "IC50", "setting": "[1]", "result": 7, "unit": "µM"}
    ]},
    {"smiles": "Nc1c(C(=O)N/N=C/c2cccs2)cnn1-c1ccc(S(N)(=O)=O)cc1", "values": [
      {"measurement": "IC50", "setting": "[1]", "result": 9.5, "unit": "µM"}
    ]},
    {"smiles": "Nc1c(C(=O)N/N=C/c2ccccc2Cl)cnn1-c1ccc(S(N)(=O)=O)cc1", "values": [
      {"measurement": "IC50", "setting": "[1]", "result": 10.5, "unit": "µM"}
    ]},
    {"smiles": "Nc1c(C(=O)N/N=C/c2ccccc2)cnn1-c1ccc(S(N)(=O)=O)cc1", "values": [
      {"measurement": "IC50", "setting": "[1]", "result": 10.4, "unit": "µM"},
      {"measurement": "Activity", "setting": "[3]", "result": "Non-Toxic"}
    ]},
    {"smiles": "O=C(O)Cc1ccccc1Nc1c(Cl)cccc1Cl", "note": "[DICLOFENAC]", "values": [
      {"measurement": "inhibition (INH)", "setting": "Rattus norvegicus [2]", "result": 59, "unit": "%"},
      {"measurement": "Activity", "setting": "[3]", "result": "Toxic"},
      {"measurement": "Activity", "setting": "Mus musculus [4]", "result": 70, "unit": "%"},
      {"measurement": "Activity", "setting": "Rattus norvegicus [5]", "result": 0.52, "unit": "%"},
      {"measurement": "Activity", "setting": "Rattus norvegicus [6]", "result": 0.28, "unit": "%"},
      {"measurement": "Activity", "setting": "Rattus norvegicus [7]", "result": 0.32, "unit": "%"},
      {"measurement": "Activity", "setting": "Rattus norvegicus [8]", "result": 0.32, "unit": "%"},
      {"measurement": "Activity", "setting": "Mus musculus [9]", "result": 12},
      {"measurement": "Activity", "setting": "[10]", "result": "Toxic"}
    ]},
    {"smiles": "Nc1c(C(=O)N/N=C/c2ccccc2[N+](=O)[O-])cnn1-c1ccc(S(N)(=O)=O)cc1", "values": [
      {"measurement": "IC50", "setting": "[1]", "result": 4.8, "unit": "µM"}
    ]},
    {"smiles": "Nc1c(C(=O)N/N=C/c2ccc(Cl)cc2)cnn1-c1ccc(S(N)(=O)=O)cc1", "values": [
      {"measurement": "IC50", "setting": "[1]", "result": 8, "unit": "µM"}
    ]},
    {"smiles": "Nc1c(C(=O)N/N=C/c2ccc(O)cc2)cnn1-c1ccc(S(N)(=O)=O)cc1", "values": [
      {"measurement": "Ki", "setting": "Carbonic anhydrase 12", "result": 0.0058, "unit": "µM"},
      {"measurement": "inhibition (INH)", "setting": "Rattus norvegicus [2]", "result": 31, "unit": "%"},
      {"measurement": "IC50", "setting": "[1]", "result": 12.5, "unit": "µM"},
      {"measurement": "Activity", "setting": "[3]", "result": "Non-Toxic"},
      {"measurement": "Activity", "setting": "Mus musculus [4]", "result": 52.5, "unit": "%"},
      {"measurement": "Activity", "setting": "Rattus norvegicus [5]", "result": 0.48, "unit": "%"},
      {"measurement": "Ki", "setting": "Carbonic anhydrase 2", "result": 0.0269, "unit": "µM"},
      {"measurement": "Activity", "setting": "Rattus norvegicus [6]", "result": 0.52, "unit": "%"},
      {"measurement": "Activity", "setting": "Rattus norvegicus [7]", "result": 0.54, "unit": "%"},
      {"measurement": "Ki", "setting": "Carbonic anhydrase 1", "result": 0.134, "unit": "µM"},
      {"measurement": "Activity", "setting": "Rattus norvegicus [8]", "result": 0.62, "unit": "%"},
      {"measurement": "Ki", "setting": "Carbonic anhydrase 9", "result": 0.0489, "unit": "µM"},
      {"measurement": "Activity", "setting": "Mus musculus [9]", "result": 19}
    ]}
  ]
}
